Measurements reported in patent US8987234B2, “Complex for treatment and/or prophylaxis of parasitic infections” (IPCA Laboratories Ltd., priority 2009, dated 2015).

Columns and labels:
physchem = type: physicochemical
[1] = tablet formulation, Malarone label; cited from earlier work
[2] = Comparative rat pharmacokinetic study, plasma analyzed by LC MS/MS; type: in vivo, albino Wistar rats
Procedure: Comparative pharmacokinetic study of complex of example-I at two doses with physical mixtures of Atovaquone and Proguanil hydrochloride (Malarone) was carried for profiling of bioavailability of Atovaquone, Proguanil and Cycloguanil from all three samples. Four groups of 13-14 weeks old five albino Wistar rats were made through random selection. Group I served as a vehicle control and received only 0.5% sodium carboxymethyl cellulose, group II and group III received two different doses of complex of Example I, and group IV received a physical mixture of Atovaquone and Proguanil hydrochloride (Malarone). The dose volume used for this study was 10 ml/Kg of body weight. Orbital sinus was used as blood collection site and the blood was collected in EDTA coated microcentrifuge tubes at different time points between 0 min (pre dose) to 240 hrs. Plasma samples were analyzed by LC MS/MS. Comparative pharmacokinetic profiles of Atovaquone, Proguanil and Cycloguanil are as given below in table 3, 4, and 5 respectively: […]

[3] = Intrinsic dissolution/solubility under standard USP conditions (40% isopropyl alcohol with phosphate buffer pH 8.0); type: physicochemical

O=C1C(O)=C([C@H]2CC[C@H](c3ccc(Cl)cc3)CC2)C(=O)c2ccccc21 [Atovaquone, trans-2-[4-(4-chlorophenyl)cyclohexyl]-3-hydroxy-1,4-naphthoquinone]
pKa (physchem): 8.39 | absolute bioavailability of Atovaquone [1]: 23%

CC(C)NC(=N)NC(=N)Nc1ccc(Cl)cc1.O=C1C(O)=C([C@H]2CC[C@H](c3ccc(Cl)cc3)CC2)C(=O)c2ccccc21 [Complex, trans-Atovaquone-Proguanil complex (1:1)]
Atovaquone bioavailability increase versus corresponding ratio of physical mixture [2]: increased by at least two times | AUC0-inf of Atovaquone ([2]; Atovaquone dose 6.166 mg/kg): 298501.894 ng/hrxml | Cmax of Atovaquone ([2]; Atovaquone dose 6.166 mg/kg): 4925.009 ng/mL | MRT of Atovaquone ([2]; Atovaquone dose 6.166 mg/kg): 39.240 h | T1/2 of Atovaquone ([2]; Atovaquone dose 6.166 mg/kg): 26.833 h | Tmax of Atovaquone ([2]; Atovaquone dose 6.166 mg/kg): 19.200 h | Vd of Atovaquone ([2]; Atovaquone dose 6.166 mg/kg): 0.001 L/kg | AUC0-inf of Atovaquone ([2]; Atovaquone dose 6.166 mg/kg (Table 3)): 298501.894 ± 117805.568 ng/hr × mL | AUC0-inf of Atovaquone ([2]; Atovaquone dose 13.005 mg/kg): 472148.864 ng/hrxml | Cmax of Atovaquone ([2]; Atovaquone dose 13.005 mg/kg): 6779.226 ng/mL | MRT of Atovaquone ([2]; Atovaquone dose 13.005 mg/kg): 50.644 h | T1/2 of Atovaquone ([2]; Atovaquone dose 13.005 mg/kg): 29.542 h | Tmax of Atovaquone ([2]; Atovaquone dose 13.005 mg/kg): 12.8 h | Vd of Atovaquone ([2]; Atovaquone dose 13.005 mg/kg): 0.001 L/kg | AUC0-inf of Cycloguanil ([2]; Proguanil dose 4.2642 mg/kg): 38.910 ng/hrxml | AUC0-inf of Proguanil ([2]; Proguanil dose 4.2642 mg/kg): 497.306 ng/hrxml | Cl of Cycloguanil ([2]; Proguanil dose 4.2642 mg/kg): 0.118 L/kg/hr | Cl of Proguanil ([2]; Proguanil dose 4.2642 mg/kg): 0.15 mL/min/kg | Cmax of Cycloguanil ([2]; Proguanil dose 4.2642 mg/kg): 4.667 ng/ml | Cmax of Proguanil ([2]; Proguanil dose 4.2642 mg/kg): 87.400 ng/mL | MRT of Cycloguanil ([2]; Proguanil dose 4.2642 mg/kg): 5.753 hr | MRT of Proguanil ([2]; Proguanil dose 4.2642 mg/kg): 5.581 h | T1/2 of Cycloguanil ([2]; Proguanil dose 4.2642 mg/kg): 5.620 hr | T1/2 of Proguanil ([2]; Proguanil dose 4.2642 mg/kg): 4.779 h | Tmax of Cycloguanil ([2]; Proguanil dose 4.2642 mg/kg): 3.200 hr | Tmax of Proguanil ([2]; Proguanil dose 4.2642 mg/kg): 2.800 h | Vd of Cycloguanil ([2]; Proguanil dose 4.2642 mg/kg): 0.873 L/Kg | Vd of Proguanil ([2]; Proguanil dose 4.2642 mg/kg): 0.061 L/kg | AUC0-inf of Cycloguanil ([2]; Proguanil dose 8.995 mg/kg): 34.797 ng/hrxml | AUC0-inf of Proguanil ([2]; Proguanil dose 8.995 mg/kg): 485.239 ng/hrxml | Cl of Cycloguanil ([2]; Proguanil dose 8.995 mg/kg): 0.261 L/kg/hr | Cl of Proguanil ([2]; Proguanil dose 8.995 mg/kg): 0.317 mL/min/kg | Cmax of Cycloguanil ([2]; Proguanil dose 8.995 mg/kg): 6.954 ng/ml | Cmax of Proguanil ([2]; Proguanil dose 8.995 mg/kg): 94.515 ng/mL | MRT of Cycloguanil ([2]; Proguanil dose 8.995 mg/kg): 5.106 hr | MRT of Proguanil ([2]; Proguanil dose 8.995 mg/kg): 4.933 h | T1/2 of Cycloguanil ([2]; Proguanil dose 8.995 mg/kg): 4.406 hr | T1/2 of Proguanil ([2]; Proguanil dose 8.995 mg/kg): 13.149 h | Tmax of Cycloguanil ([2]; Proguanil dose 8.995 mg/kg): 2.00 hr | Tmax of Proguanil ([2]; Proguanil dose 8.995 mg/kg): 1.15 h | Vd of Cycloguanil ([2]; Proguanil dose 8.995 mg/kg): 1.618 L/Kg | Vd of Proguanil ([2]; Proguanil dose 8.995 mg/kg): 0.349 L/kg | % Dissolution Atovaquone ([3]; 1 Hrs.): 2.64% | % Dissolution Proguanil ([3]; 1 Hrs.): 1.97% | % Dissolution Atovaquone ([3]; 2 Hrs.): 5.61% | % Dissolution Proguanil ([3]; 2 Hrs.): 3.64% | % Dissolution Atovaquone ([3]; 3 Hrs.): 7.72% | % Dissolution Proguanil ([3]; 3 Hrs.): 5.22% | % Dissolution Atovaquone ([3]; 4 Hrs.): 9.75% | % Dissolution Proguanil ([3]; 4 Hrs.): 6.38% | intrinsic solubility of Atovaquone compared with physical mixture of Atovaquone-Proguanil ([3]; 40% isopropyl alcohol with phosphate buffer pH 8.0): almost doubled
